Measured values reported in patent EP0511845B1, “Pesticidal 1-aryl-5-(substituted alkylideneimino)-pyrazoles” (AVENTIS CROPSCIENCE S.A., priority 1991, dated 1992).

Columns and labels:
Type in all cases: in vivo
Spodoptera eridania [1] = test: Southern armyworm on tomato - systemic evaluation; conditions: systemic via root uptake; 6.6 ppm soil concentration; foliage excised 21 days after treatment, larvae examined after about 5 days
Procedure: For southern root-knot nematod and systemic tests for southern armyworm, cotton aphid, tobacco budworm and greenbug, a stock solution or suspension was prepared by adding 15 mg of the test compound to 250 mg of dimethylformamide, 1250 mg of acetone and 3 mg of the emulsifier blend referenced above. Water was then added to provide a test compound concentration of 150 ppm. When necessary, sonication was provided to insure complete dispersion. Southern armyworm on tomato - systemic evaluation: This test was conducted in conjunction with the southern root-knot nematode evaluation (discussed below). The tomato plants, grown in the soil (at an initial compound test screening rate of 6.6 ppm soil concentration or about 150 ppm solution concentration) for nematode evaluation, were then utilized for evaluation of a compound's uptake via roots and subsequent systemic transport to the tomato foliage. At the termination of the nematode test, 21 days after treatment, the tomato foliage was excised, placed into a plastic container, and infested with second instar larvae of southern armyworm. After about 5 days, the larvae were examined for percent mortality.

Spodoptera eridania [2] = test: Southern armyworm on sorghum - systemic evaluation (soil drench); conditions: systemic via root uptake, 20 ppm soil concentration dose (and subsequent dilutions), six days
Procedure: Cotton aphid and southern armyworm (on cotton) and greenbug and southern armyworm (on sorghum) - systemic evaluation: A stock solution or suspension was prepared to deliver 5 ml of a 20 ppm soil concentration dose (and subsequent dilutions) as a drench to 6 cm pots containing cotton and sorghum plants. The cotton plants were previously infested with cotton aphids about two days before treatment and greenbug one day before treatment. After holding the plants about three days, the plants were rated for aphid activity. Again at six days, the plants were rated for aphid activity and the cotton aphids and greenbugs were counted and mortality was assessed. Portions of the cotton and sorghum foliage were excised, placed in separate plastic containers, and infested with second instar larvae of southern armyworms. The potted plants were dipped in sulfotepp to kill the remaining aphids and returned to the greenhouse for regrowth. Thirteen days after treatment the remaining foliage was excised and fed to southern armyworm. Mortality was assessed six days after infestation.

Meloidogyne incognita = test: Southern root-knot nematode test (gall rating on tomato); conditions: effective dose to provide a 3 gall rating (light galling)
Procedure: For southern root-knot nematod and systemic tests for southern armyworm, cotton aphid, tobacco budworm and greenbug, a stock solution or suspension was prepared by adding 15 mg of the test compound to 250 mg of dimethylformamide, 1250 mg of acetone and 3 mg of the emulsifier blend referenced above. Water was then added to provide a test compound concentration of 150 ppm. When necessary, sonication was provided to insure complete dispersion.
Southern root-knot nematode: Infected roots of tomato plants, containing egg masses of southern root-knot nematode, were removed from a stock culture and cleaned of soil by shaking and washing with tap water. The nematode eggs were separated from the root tissue and rinsed with water. Samples of the egg suspension were placed on a fine screen over a receiving bowl, in which the water level was adjusted to be in contact with the screen. From the bowl, juveniles were collected on a fine screen. […] At the termination of the test, roots of the tomato seedling were removed from the cone and evaluated for galling on a rating scale relative to the untreated control as follows: • 1- severe galling, equal t untreated control • 3- light galling • 4- very light galling • 5- no galling, ie, complete control

Spodoptera eridania [3] = test: Southern armyworm on oats - seed treatment evaluation; conditions: 1.0 wt. % on oat seeds
Procedure: Cotton aphid and southern armyworm (on cotton and oats) - seed treatment evaluation: Technical material was applied to the seed of oats and cotton by placing the compound and the seed in an appropriate sized jar and rolling the jar on a ball mill. Assay of the material applied to the seed was by weight. Seed was then planted. When germinated and emerged, the plants were infested at the appropriate intervals with host insects. Mortality was assessed on those insects.

Aphis gossypii = test: Cotton aphid on cotton - systemic evaluation (soil drench); conditions: systemic via root uptake, soil drench at soil concentrations of the protocols (10.0 or 20 ppm)
Procedure: (§1) For southern root-knot nematod and systemic tests for southern armyworm, cotton aphid, tobacco budworm and greenbug, a stock solution or suspension was prepared by adding 15 mg of the test compound to 250 mg of dimethylformamide, 1250 mg of acetone and 3 mg of the emulsifier blend referenced above. Water was then added to provide a test compound concentration of 150 ppm. When necessary, sonication was provided to insure complete dispersion. Cotton aphid and tobacco budworm (on cotton) and greenbug and tobacco budworm (on sorghum) - systemic evaluation: A 7.0 ml aliquot of the 150 ppm nematode test solution was applied to deliver the equivalent of 10.0 ppm soil concentration dose as a drench to 6 cm pots containing cotton and sorghum plants. The cotton plants were previously infested with cotton aphids about two days before treatment and greenbug one day before treatment. After holding the plants about three days, the plants were rated for aphid activity. Again at six days, the plants were rated for aphid activity and the cotton aphids and greenbugs were counted and mortality was assessed. Portions of the cotton and sorghum foliage were excised, placed in separate plastic containers, and infested with second instar larvae of tobacco budworm. The potted plants were dipped in sulfotepp to kill the remaining aphids and returned to the greenhouse for regrowth. Thirteen days after treatment, the remaining foliage was excised and fed to tobacco budworms. Mortality was assessed six days after infestation. Cotton aphid and southern armyworm (on cotton) and greenbug and southern armyworm (on sorghum) - systemic evaluation: A stock solution or suspension was prepared to deliver 5 ml of a 20 ppm soil concentration dose (and subsequent dilutions) as a drench to 6 cm pots containing cotton and sorghum plants. The cotton plants were previously infested with cotton aphids about two days before treatment and greenbug one day before treatment. After holding the plants about three days, the plants were rated for aphid activity. Again at six days, the plants were rated for aphid activity and the cotton aphids and greenbugs were counted and mortality was assessed. Portions of the cotton and sorghum foliage were excised, placed in separate plastic containers, and infested with second instar larvae of southern armyworms. The potted plants were dipped in sulfotepp to kill the remaining aphids and returned to the greenhouse for regrowth. Thirteen days after treatment the remaining foliage was excised and fed to southern armyworm. Mortality was assessed six days after infestation.

Heliothis virescens [4] = test: Tobacco budworm on sorghum - systemic evaluation (soil drench); conditions: systemic via root uptake, 10.0 ppm soil concentration
Procedure: For southern root-knot nematod and systemic tests for southern armyworm, cotton aphid, tobacco budworm and greenbug, a stock solution or suspension was prepared by adding 15 mg of the test compound to 250 mg of dimethylformamide, 1250 mg of acetone and 3 mg of the emulsifier blend referenced above. Water was then added to provide a test compound concentration of 150 ppm. When necessary, sonication was provided to insure complete dispersion. Cotton aphid and tobacco budworm (on cotton) and greenbug and tobacco budworm (on sorghum) - systemic evaluation: A 7.0 ml aliquot of the 150 ppm nematode test solution was applied to deliver the equivalent of 10.0 ppm soil concentration dose as a drench to 6 cm pots containing cotton and sorghum plants. The cotton plants were previously infested with cotton aphids about two days before treatment and greenbug one day before treatment. After holding the plants about three days, the plants were rated for aphid activity. Again at six days, the plants were rated for aphid activity and the cotton aphids and greenbugs were counted and mortality was assessed. Portions of the cotton and sorghum foliage were excised, placed in separate plastic containers, and infested with second instar larvae of tobacco budworm. The potted plants were dipped in sulfotepp to kill the remaining aphids and returned to the greenhouse for regrowth. Thirteen days after treatment, the remaining foliage was excised and fed to tobacco budworms. Mortality was assessed six days after infestation.

Schizaphis graminum = test: Greenbug on sorghum - systemic evaluation (soil drench); conditions: systemic via root uptake, soil drench at soil concentrations of the protocols (10.0 or 20 ppm)
Procedure: as §1

Tetranychus urticae = test: Twospotted spider mite test (foliar, 100 ppm); conditions: foliar bait tests
Procedure: For mite, aphid, southern armyworm, Mexican bean beetle, and tobacco budworm tests, a solution or suspension was prepared by adding 10 mg of the test compound to a solution of 160 mg of dimethylformamide, 838 mg of acetone, 2 mg of a 3:1 ratio of Triton X-172 : Triton X-152 (respectively, mainly anionic and nonionic low foam emulsifiers which are each anhydro us blends of alkylaryl polyether alcohols with organic sulfonates), and 98.99 g of water. The result was a concentration of 100 ppm of the test compound.
Twospotted spider mite: Leaves infested with adult and nymphal stages of the two-spotted spider mite, obtained from a stock culture were placed on the primary leaves of two bean plants growing in a 6 cm. peat pot. A sufficient number of mites (150-200) for testing were transferred to the fresh plants within a period of twenty-four hours. The potted plants (one pot per compound) were placed on a revolving turntable and sprayed, sufficient to wet the plants to runoff, with 100 ml of the 100 ppm test compound formulation by use of a DeVilbiss spray gun set at 40 psig. air pressure. As an untreated control, 100 ml of the water-acetone-DMF-emulsifier solution, containing no test compound, were also sprayed on infested plants. A treated control with a commercial technical compound, either dicofol or hexythiazox, formulated in the same manner, was tested as a standard. […]

Heliothis virescens [5] = test: Tobacco budworm - contact evaluation (topical application); conditions: topical or contact tests; application dose of 63 µg/g body weight
Procedure: For tobacco budworm contact tests, a stock solution was prepared by dissolving the compound in acetone and then further diluted to provide the required serial dilution concentrations.
Tobacco budworm - contact evaluation: The following topical application method provides an assessment of contact toxicity of a compound to tobacco budworm larvae The test compound solution at sequential two-fold dilution concentrations from 10 down to 0.16 µg/µl was applied by a microinjector in repli cated 1 µl portions to the dorsum of approximately 20 mg tobacco budworm larvae. This is equivalent to applied doses of 500 down to 8 µg/g body weight. An acetone treated control, without any test compounds, as also applied. A treated control with a commercial technical compound, cypermethrin or thiodicarb, also in acetone was used as a standard. The treated larvae were placed, individually, in separate plastic petri dishes containing an untreated cotton leaf and a moist dental wick. The treated larvae were maintained at about 27°C and 50% relative humidity. The percent mortality was rated 1 and 4 days after treatment.

| SMILES | control of cotton aphid after six days on cotton (Aphis gossypii) | control of tobacco budworm after six days on sorghum (Heliothis virescens [4]) [%] | control of greenbug after six days on sorghum (Schizaphis graminum) | also measured |
| --- | --- | --- | --- | --- |
| COc1cc(C=Nc2c([S+]([O-])C(F)(F)F)c(C#N)nn2-c2c(Cl)cc(C(F)(F)F)cc2Cl)ccc1O (stereo not drawn) [compound 10, 1-(2,6-dichloro-4-trifluoromethylphenyl)-3-cyano-4-trifluoromethylsulfinyl-5-[(4-hydroxy-3-methoxyphenyl)methylideneimino]pyrazole] |  |  |  | control of southern armyworm on tomato (Spodoptera eridania [1]): 50-100%; control of southern armyworm after six days on sorghum (Spodoptera eridania [2]): 30-100%; ED3 value on SRKN larvae (Meloidogyne incognita): about 21 kg/ha |
| N#Cc1nn(-c2c(Cl)cc(C(F)(F)F)cc2Cl)c(N=Cc2cccs2)c1SC(F)(F)F [compound 7] |  |  |  | ED3 value on SRKN larvae (Meloidogyne incognita): about 21 kg/ha |
| COc1cc(C=Nc2c(SC(F)(F)F)c(C#N)nn2-c2c(Cl)cc(C(F)(F)F)cc2Cl)ccc1O [CMPD NO. 2, 1-(2,6-dichloro-4-trifluoromethylphenyl)-3-cyano-4-trifluoromethylsulfenyl-5-[(4-hydroxy-3-methoxyphenyl)methylideneimino]pyrazole] |  |  |  | control of southern armyworm after six days on sorghum (Spodoptera eridania [2]): 30-100%; control of southern armyworm after six days (Spodoptera eridania [3]): 100% |
| N#Cc1nn(-c2c(Cl)cc(C(F)(F)F)cc2Cl)c(N=Cc2cc[n+]([O-])cc2)c1SC(F)(F)F [compound 18, 1-(2,6-dichloro-4-trifluoromethylphenyl)-3-cyano-4-trifluoromethylsulfenyl-5-[(4-pyridyl-N-oxide)methylideneimino]pyrazole] | 30-100% | 100 | 30-100% |  |
| N#Cc1nn(-c2c(Cl)cc(C(F)(F)F)cc2Cl)c(N=Cc2ccc(O)cc2O)c1SC(F)(F)F [compound 17] | 30-100% | 100 | 30-100% |  |
| Cc1cc(C=Nc2c(SC(F)(F)F)c(C#N)nn2-c2c(Cl)cc(C(F)(F)F)cc2Cl)ccc1O [compound 19] | 30-100% | 100 | 30-100% |  |
| CCOc1cc(C=Nc2c([S+]([O-])C(F)(F)F)c(C#N)nn2-c2c(Cl)cc(C(F)(F)F)cc2Cl)ccc1O (stereo not drawn) [compound 47] |  |  |  | control of mites (Tetranychus urticae): 30-70% |
| COc1cc(C=Nc2c(SC(F)(F)F)c(C#N)nn2-c2c(Cl)cc(C(F)(F)F)cc2Cl)cc(O)c1O [compound 40] |  |  |  | control of mites (Tetranychus urticae): 30-70%; control of tobacco budworm (TBW) (Heliothis virescens [5]): 50-100% |
